Experimental data as given in patent US11452292B2, “Biofilm inhibitor and method of inhibiting biofilm” (NDSU Research Foundation, priority 2017, dated 2022).
In brackets after ≈: the same amount, converted by molar mass. Entries after “also recorded” stand apart in the source; their conditions may differ. Like-named read-outs stand apart in the source and are kept apart here.

Tests used:
Y. enterocolitica [1] = assay: Planktonic growth (maximal velocity of OD600) in TSB; type: cell-based, Yersinia enterocolitica; details: for IC50: Yersinia enterocolitica, Y. enterocolitica
Description: The IC50 values were calculated using […] software (Hitachi Solutions, San Bruno, Calif.).

Y. enterocolitica [2] = assay: Biofilm amounts, CV assay, 24-well polystyrene plate; type: cell-based, Yersinia enterocolitica
Source text: Data were expressed as OD600.

pseudomonads = assay: Ground beef at 10° C., counts on PSA plates; type: cell-based; details: for Different from 0% (concentrations grouping differently from untreated control, Fisher's LSD and t-test): PSA, Pseudomonas
Description: (§1) Ground beef was obtained from the NDSU Meat Lab (ag.ndsu.edu/ansc/facilities/shepperd-arena). Precautionary steps that the slaughter facility undertakes to prevent microbial contamination of muscle meat include rinses of the hot carcass with hot water and 2.5% lactic acid (Birko Corp., Henderson, Colo.). Prior to cutting the meat, cattle halves are incubated for two weeks at a temperature between 0 and 2.2° C. For this Example, meat from two animals was ground within the NDSU Meat Lab and consecutively transferred on ice to the research lab where this Experiment was conducted. Approximately 4 pound of ground meat was obtained from two independent slaughter events (FIG. 6). These two original meat samples are referred to as biological replicates throughout this study. Each biological replicate was weighed into five aliquots of 200 g that were supplemented with 0 g, 0.1 g, 0.5 g, 1 g, or 5 g of liquid EAA (Alfa Aesar, Ward Hill Mass.). […]
(§2) Meat samples were removed from the freezer and incubated at 10° C. for five days; bacterial counts were determined on days 1, 3, and 5. […]
(§3) The content of each bag was transferred into a stomacher bag and Maximum Recovery Diluent (MRD) was added to a total of 50 ml. […] The total bacterial count of each homogenate was determined by plating serial dilutions on Plate Count Agar (PCA). Pseudomonads were determined with Pseudomonas Selective Agar (PSA), lactobacilli with All Purpose Tween agar (APT), B. thermospacta with Streptomycin sulphate, Thallous Acetate and Actidione agar (STAA), and Enterobacteriaceae with Violet Red Bile Glucose agar (VRBG). […]
(§4) Each experiment was performed in a total of 8 replicates (2 biological replicates×2 technical replicates×2 plate replicates). […] Data were analyzed for each EAA concentration and selective media and expressed as CFU/g of meat or log10 CFU/g of meat. […] Average and standard errors were calculated across the two biological and two technical replicates. […]

lactobacilli = assay: Ground beef at 10° C., counts on APT plates; type: cell-based; details: for Different from 0% (concentrations grouping differently from untreated control, Fisher's LSD and t-test): LPT, Lactobacilli
Description: as §1, §2, §3, §4

Enterobacteriaceae = assay: Ground beef at 10° C., counts on VRBG plates; type: cell-based; details: for Different from 0% (concentrations grouping differently from untreated control, Fisher's LSD and t-test): VRGB, Enterobacteriaceae
Description: Ground beef was obtained from the NDSU Meat Lab (ag.ndsu.edu/ansc/facilities/shepperd-arena). Precautionary steps that the slaughter facility undertakes to prevent microbial contamination of muscle meat include rinses of the hot carcass with hot water and 2.5% lactic acid (Birko Corp., Henderson, Colo.). Prior to cutting the meat, cattle halves are incubated for two weeks at a temperature between 0 and 2.2° C. For this Example, meat from two animals was ground within the NDSU Meat Lab and consecutively transferred on ice to the research lab where this Experiment was conducted. Approximately 4 pound of ground meat was obtained from two independent slaughter events (FIG. 6). These two original meat samples are referred to as biological replicates throughout this study. Each biological replicate was weighed into five aliquots of 200 g that were supplemented with 0 g, 0.1 g, 0.5 g, 1 g, or 5 g of liquid EAA (Alfa Aesar, Ward Hill Mass.). A total of six aliquots of 10 g were produced from each 200 g aliquot to allow for two technical replicates and determination of bacterial counts at three different time points during the incubation period. Aliquots were stored in Ziploc bags at −20° C.
Meat samples were removed from the freezer and incubated at 10° C. for five days; bacterial counts were determined on days 1, 3, and 5. For one initial experiment, samples were removed after 1 h of incubation at 10° C. This aliquot is not included in FIG. 6.
The content of each bag was transferred into a stomacher bag and Maximum Recovery Diluent (MRD) was added to a total of 50 ml. Meat was homogenized in a Seward Stomacher 400 Circulator (Cole Parmer, Vernon Hills, Ill.). The total bacterial count of each homogenate was determined by plating serial dilutions on Plate Count Agar (PCA). Pseudomonads were determined with Pseudomonas Selective Agar (PSA), lactobacilli with All Purpose Tween agar (APT), B. thermospacta with Streptomycin sulphate, Thallous Acetate and Actidione agar (STAA), and Enterobacteriaceae with Violet Red Bile Glucose agar (VRBG). For the composition of these media, see TABLE 7 (BD: Becton Dickinson). […]
Each experiment was performed in a total of 8 replicates (2 biological replicates×2 technical replicates×2 plate replicates). […] Data were analyzed for each EAA concentration and selective media and expressed as CFU/g of meat or log10 CFU/g of meat. […] Average and standard errors were calculated across the two biological and two technical replicates. […] For comparisons that determined statistically significant differences between the means (p-value below 0.05), Fisher's Least Significant Difference (LSD) test and a pairwise Student's t-test were performed as post hoc test to determine which of the groups were different from the others.

E. coli O157:H7 = type: cell-based, Escherichia coli O157:H7; details: 0.5% EAA
[3] = test system: tested bacterial pathogens; assay: Biofilm in silicone tubing, EAA flush, ATP assay, summary over strains; type: cell-based
Source text: An AV Fistula Needle 17 Ga.

S. aureus = assay: Viable cell counts in the liquid collected from the tubing before each treatment; type: cell-based, Staphylococcus aureus; details: before the 2nd treatment, 100 mg/ml EAA as first treatment
albino rabbits = details: 0.5 ml EAA, semi-occlusive cover, intact skin, 4 hours of exposure; cited from earlier work
S. enterica = details: cited from earlier work
B. subtilis = details: cited from earlier work
Y. enterocolitica [4] = assay: Biofilm in silicone tubing, EAA flush, CV assay; details: 10 mg/ml EAA
P. aeruginosa [5] = assay: Biofilm in silicone tubing, EAA flush, ATP assay
S. marcescens = assay: Biofilm in silicone tubing, EAA flush, ATP assay; details: 5 mg/ml EAA
P. aeruginosa [6] = assay: Viable cell counts from the biofilms in silicone tubing; details: 100 mg/ml of EAA, end of two week incubation
[7] = test system: Cronobacter sakazakii, Serratia marcescens, and Yersinia enterocolitica; assay: Growth and biofilm assays, summary over the three pathogens
P. aeruginosa [8] = assay: Viable cell counts in the liquid collected from the tubing before each treatment

## CCOC(=O)CC(C)=O [EAA, ethyl acetoacetate]
Y. enterocolitica [1]; 25° C., 10 mg/ml EAA
  log reduction of planktonic growth: 1.7 log
  reduction of planktonic growth, fold equivalent: 50 fold
Y. enterocolitica [1]; 37° C., 5 mg/ml EAA
  log reduction of planktonic growth: 1.78
  reduction of planktonic growth, fold equivalent: 61 fold
Y. enterocolitica [1]; 25° C.
  IC50: 3200 mg/L (≈ 24.6 mM)
Y. enterocolitica [1]; 37° C.
  IC50: 2480 mg/L (≈ 19.1 mM)
Y. enterocolitica [2]; 37° C., 10 mg/ml EAA
  biofilm amounts quantified by the CV assay: abolished
Y. enterocolitica [2]; Yersinia enterocolitica, Y. enterocolitica, 25° C.
  IC50: 1000 mg/L (≈ 7.68 mM)
pseudomonads; 0.5% w/w EAA, 3 days at 10° C.
  log reduction, pseudomonads: 2.6
pseudomonads; 0.5% EAA
  Different from 0% (concentrations grouping differently from untreated control, Fisher's LSD and t-test): 0.5%
pseudomonads; 2.5% EAA
  Different from 0% (concentrations grouping differently from untreated control, Fisher's LSD and t-test): 2.5%
lactobacilli; 0.5% w/w EAA, 3 days at 10° C.
  log reduction, lactobacilli: 1.8
lactobacilli; 0.5% EAA
  Different from 0% (concentrations grouping differently from untreated control, Fisher's LSD and t-test): 0.5%
lactobacilli; 2.5% EAA
  Different from 0% (concentrations grouping differently from untreated control, Fisher's LSD and t-test): 2.5%
Enterobacteriaceae; 0.5% w/w EAA, 3 days at 10° C.
  log reduction, Enterobacteriaceae: 2
Enterobacteriaceae; 2.5% of EAA, 5 days at 10° C.
  log reductions, Enterobacteriaceae: up to 3.8
Enterobacteriaceae; 0.5% EAA
  Different from 0% (concentrations grouping differently from untreated control, Fisher's LSD and t-test): 0.5%
Enterobacteriaceae; 2.5% EAA
  Different from 0% (concentrations grouping differently from untreated control, Fisher's LSD and t-test): 2.5%
E. coli O157:H7; day 3, without EAA 5.2 log10
  externally added E. coli count in the presence of EAA: 4.1 log10
E. coli O157:H7; day 5 at 10° C.
  reduction in the E. coli count: 1.6 log
[3]; 10 mg/ml EAA
  reductions of ATP, all strains except S. marcescens: ≥ 80%
[3]; 100 mg/ml of EAA flush
  reduction of ATP content of the biofilm, almost all tested pathogens: 100%
[3]; 10 and 100 mg/ml EAA
  reduction of ATP content depending on the strain: 90-99%
S. aureus
  difference in viable cells in the liquid, EAA vs media flush: 2 log
Albino rabbits
  skin irritation: no indications of irritation were detected
S. enterica
  mutagenicity: No mutagenicity was detected
B. subtilis
  mutagenicity: No mutagenicity was detected
Y. enterocolitica [4]
  reduction in biofilm biomass (CV), words: No reduction
P. aeruginosa [5]; 100 mg/ml EAA, first experiment
  ATP content of P. aeruginosa biofilm: not affected; also recorded: not reduced
P. aeruginosa [5]; P. aeruginosa, 10 mg/ml of EAA
  reduction of ATP: 76%
P. aeruginosa [5]; P. aeruginosa, 100 mg/ml of EAA, repeated experiment
  ATP assay of the biofilm at the end of the two week incubation: just about abolished the biofilm
S. marcescens
  reduction in ATP content of the biofilm: ~100%
P. aeruginosa [6]
  reduction of cell counts within the biofilm: about 3 logs
[7]; read-out: IC50 values for biofilm amounts (summary)
  IC50: ~1000 mg/L (≈ 7.68 mM)
[7]; read-out: IC50 values, range over all experiments
  IC50: 310 to 5600 mg/L (≈ 2.38 to 43 mM)
[7]; three pathogens, maximal reduction
  reduction of growth, biofilm amounts and live bacterial cell counts: up to 3 logs
P. aeruginosa [8]; before the 2nd treatment, 100 mg/ml of EAA as first treatment
  difference in viable cells in the liquid, EAA vs media flush: < 2 log
P. aeruginosa [8]; before the 4th treatment, 3 treatments of 100 mg/ml of EAA
  increase in viable cells in the liquid, EAA vs media flush: ~1 log
P. aeruginosa [8]; before the third treatment, two treatments of 100 mg/ml of EAA
  difference in cell numbers, EAA vs media control: approximately 2 logs
